# Literature values as cited in US11324828B2, “Hydrogel polymeric compositions and methods” (Incept, LLC, priority 2007, dated 2022).
# Like-named read-outs stand apart in the source and are kept apart here.
# Legend:
# [1] = not given; remark: listed apart in the source
SMILES,Solubility (in water),water solubility [1],also measured
Cc1ccc(Cl)c(Nc2ccccc2C(=O)[O-])c1Cl.[Na+] [Meclofenamate Sodium],–,–,Solubility (@ pH 7.2): <50 μg/mL @ pH 7.2 50 mg/mL @ pH 9.0
NC(=O)Cc1cccc(C(=O)c2ccccc2)c1N [Nepafenac],–,–,Solubility (no pH or medium printed): <1 mg/ml (The drug is available as 0.1% suspension)
CCc1cccc2c3c([nH]c12)C(CC)(CC(=O)O)OCC3 (stereo not drawn) [Etodolac],Insoluble in water,–,–
CCCCN1CCCCC1C(=O)Nc1c(C)cccc1C (stereo not drawn) [Bupivacaine],–,about 86 mg/L,–
CC(C(=O)[O][Ca][O]C(=O)C(C)c1cccc(Oc2ccccc2)c1)c1cccc(Oc2ccccc2)c1 (stereo not drawn) [Fenoprofen Calcium],Slightly soluble in water,–,–
O=C(O)Cc1ccccc1Nc1c(Cl)cccc1Cl [Diclofenac Sodium],–,about 1113 mg/L,–
